Data reported in patent US20230000832A1, “USE OF NEUROPILIN ANTAGONISTS FOR THE TREATMENT OF ENDOMETRIOSIS” (INSERM (Institut National de la Santé et de la Recherche …, priority 2019, published 2023).
Entries after “also recorded” stand apart in the source; their conditions may differ.

How the values were obtained:
[1] = system: human primary unmodified endometrial cell line (TH-EM1); test: Cell proliferation assay (WST-1) on primary endometrial cells; type: cell-based; details: for endometrial growth inhibition: high concentration 10^−5M, since 2 days (D2) of exposure; for exposure time to reach maximum efficiency: low concentration between 10^−6 and 10^−7 M, effect stable at D5
Protocol: (§1) The human primary unmodified endometrial cell line (TH-EM1) describes by Gogusev j et al. 2019 is cultured with Dulbecco modified Eagle medium supplemented with 10% of fetal calf serum (FCS), L-glutamine, and antibiotics (Invitrogen-Thermo Fisher, Cergy-Pontoise, France). Cells were plated in 96-well plates or in 12-well plates to study cell proliferation or apoptosis, respectively.
Cells were plated in 200 μL/well in 96-well plates at 10^4 cells/well and were treated or not with Neuropilin antagonists (NRPa) such as NRPa-47, NRPa-48 at several concentration (10^−5 to 5·10^−8M) alone or in association with different concentrations of progestatif drugs such as Lutenyl® (Nomegestrol acetate) at 3·10^−5 M during 48 h, 72 h or 120 h. WST-1 (Roche®, France) was added for 2 h, then Optical Density was analyzed with a microplate reader (Microplate Manager 5.2, Bio-Rad) at 490 nm to determine the cell viability.

[2] = system: human primary unmodified endometrial cell line (TH-EM1); test: Apoptosis assay (Annexin-V/7AAD, flow cytometry); type: cell-based; details: 10^−6 M, 72 h, versus untreated and DMSO treated cells
Protocol: as §1
Cells were plated in 2000 μL/well in 12-well plates at 5·10^5 cells/well and were treated or not with Neuropilin antagonists (NRPa) such as NRPa-47, NRPa-48 during 48 h to 72 h at 10^−6M. Then, cells are harvested and stained using Annexin-V/7AAD kit protocol following manufacturer's recommendation. Then, stained cells were analyzed on a fluorescence activated cell sorter (FACS) Calibur flow cytometer (Becton Dickinson Co, Mountain View, Calif.) and data analysis was performed with Flowjo software.

Row | Structure (SMILES) | inhibition at 10 µM ([1]; Homo sapiens, 10^−5M, after 48 h (D2), consistent at 72 h (D3), read-out: decrease of cell survival / inhibition of endometrial cells) [%] | IC50 on primary endometrial cell proliferation ([1]; NRPa alone, concentration range, time course D2 to D5, approximative/calculated) | effect of association with progestogen on cell growth inhibition ([1]; NRPa-47 5·10^−7M (6·10^−7 M) with Lutenyl (Nomegestrol acetate) 3·10^−5 M) | endometrial growth inhibition [1] | exposure time to reach maximum efficiency [1] [days] | induction of apoptosis and necrosis / cell death of endometrial cells [2] | IC50 ([1]; Homo sapiens, NRPa alone, approximative, same value restated in nM) [nM] | IC50 ([1]; Homo sapiens, NRPa alone, concentration range, time course D2 to D5, approximative/calculated) [nM] | effect of association with progestogen on cell growth inhibition ([1]; NRPa-48 5·10^−8M with Lutenyl (Nomegestrol acetate) 3·10^−5 M)
1 | Cc1ccc(-c2nc3ccccc3[nH]2)cc1NC(=S)NC(=O)c1ccc2c(c1)OCCO2 [NRPa-47, N-[5-(1H-benzimidazol-2-yl)-2-methylphenyl]-N′-(2,3-dihydro-1,4-benzodioxin-6-ylcarbonyl)thiourea] | 80 | 10^−6 to 10^−7 M | Additif effect; also recorded: additive effect | rapid endometrial growth inhibition | 3 | induction of apoptosis; also recorded: induced endometrial cell death |  |  | 
2 | O=C(NC(=S)Nc1cccc(-c2nc3ccccc3[nH]2)c1)c1ccc2c(c1)OCCO2 [NRPa-48, N-[3-(1H-benzimidazol-2-yl)phenyl]-N′-(2,3-dihydro-1,4-benzodioxin-6-ylcarbonyl)thiourea] |  |  |  | rapid endometrial growth inhibition | 3 | induction of apoptosis; also recorded: induced endometrial cell death | ~100 | 100 | synergistic effect
